Laboratory results published in ChEMBL document CHEMBL5247640 (J Med Chem, 2023).
Values belong to the molecule of their own block, whether it stands above or below them. Calls of active or inactive are those of the source. The rule behind the calls is not given here.

Assays:
[1] = target: T1, Thyroid hormone receptor alpha (Homo sapiens, UniProt P10827); test: Agonist activity at human THRalpha transfected in Huh7 cells co-transfected with luciferase reporter plasmid assessed as […] luciferase activity incubated for 16 hrs by Steady-Glo luciferase assay; type: cell-based, Huh-7
T1 sequence (P10827 whole entry): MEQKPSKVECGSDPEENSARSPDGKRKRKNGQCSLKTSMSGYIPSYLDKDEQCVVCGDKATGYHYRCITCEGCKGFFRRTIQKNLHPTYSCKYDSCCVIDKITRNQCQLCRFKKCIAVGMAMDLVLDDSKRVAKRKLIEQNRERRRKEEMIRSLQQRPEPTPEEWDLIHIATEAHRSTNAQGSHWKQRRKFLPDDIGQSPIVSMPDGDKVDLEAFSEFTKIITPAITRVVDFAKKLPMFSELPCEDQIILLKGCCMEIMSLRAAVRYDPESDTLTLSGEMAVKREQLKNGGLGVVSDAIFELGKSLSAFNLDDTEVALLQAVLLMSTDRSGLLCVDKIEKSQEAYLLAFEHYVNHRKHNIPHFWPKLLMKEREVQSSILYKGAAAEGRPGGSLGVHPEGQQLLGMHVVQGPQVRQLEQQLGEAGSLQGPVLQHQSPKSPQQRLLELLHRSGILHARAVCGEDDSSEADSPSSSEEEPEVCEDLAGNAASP

[2] = target: T2, Thyroid hormone receptor beta (Homo sapiens, UniProt P10828); test: Agonist activity at human THRbeta transfected in Huh7 cells co-transfected with luciferase reporter plasmid assessed as […] luciferase activity incubated for 16 hrs by Steady-Glo luciferase assay; type: cell-based, Huh-7
T2 sequence (P10828 whole entry): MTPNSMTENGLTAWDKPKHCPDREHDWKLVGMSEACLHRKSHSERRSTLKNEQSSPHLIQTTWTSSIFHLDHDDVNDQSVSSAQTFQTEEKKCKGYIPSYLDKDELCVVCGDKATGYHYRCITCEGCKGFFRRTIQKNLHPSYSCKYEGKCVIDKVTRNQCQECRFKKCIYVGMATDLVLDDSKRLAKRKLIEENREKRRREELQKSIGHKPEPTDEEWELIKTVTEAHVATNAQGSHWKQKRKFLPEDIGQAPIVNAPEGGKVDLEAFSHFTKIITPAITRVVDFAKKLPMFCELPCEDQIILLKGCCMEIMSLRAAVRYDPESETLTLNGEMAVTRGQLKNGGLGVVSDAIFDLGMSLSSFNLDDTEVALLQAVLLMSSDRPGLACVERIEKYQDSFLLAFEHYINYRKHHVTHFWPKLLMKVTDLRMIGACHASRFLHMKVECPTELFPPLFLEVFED

[3] = Fold of selectivity, ratio of compound EC50/T3 EC50 for THRalpha to ratio of compound EC50/T3 EC50 for THRbeta
[4] = Metabolic stability in dog liver microsomes assessed as half life; type: ADME, Canis lupus familiaris, Microsome
[5] = tested on: Mus musculus; test: Anti-NASH activity in high-fat diet and CCl4-induced nonalcoholic steatohepatitis C57BL/6J mouse assessed as decrease in NAFLD activity score at 3 to 10 mg/kg, po once daily and measured after 48 hrs by hematoxylin and eosin staining based microscopic analysis; type: functional, organism-based; conditions: dose 3-10 mg/kg
[6] = Cmax in ICR mouse liver at 10 mg/kg, po measured after 24 hrs by LC-MS/MS analysis; type: ADME, organism-based; design: dose 10 mg/kg, time 24 hrs, route po
[7] = Metabolic stability in rat liver microsomes assessed as half life; type: ADME, Microsome
[8] = Metabolic stability in rat liver microsomes assessed as intrinsic clearance; type: ADME, Microsome
[9] = Cardiotoxicity in ICR mouse assessed as changes in Myh6 mRNA expression in heart at 3 to 10 mg/kg, po administered as single dose by qRT-PCR analysis; type: toxicity, organism-based; conditions: in vivo, dose 3-10 mg/kg
[10] = tested on: Mus musculus; test: Anti-NASH activity in high-fat diet and CCl4-induced nonalcoholic steatohepatitis C57BL/6J mouse assessed as decrease in serum LDL-cholesterol level administered orally once daily for 6 weeks; type: functional, organism-based; conditions: dose 3-10 mg/kg, route po
[11] = Hepatotoxicity in ICR mouse assessed as upregulation of Me1 mRNA expression in liver by measuring fold change at 3 to 10 mg/kg, po administered as single dose by qRT-PCR analysis; type: toxicity, organism-based; conditions: in vivo, dose 3-10 mg/kg
[12] = Toxicity in ICR mouse assessed as decrease in serum total LDL-cholesterol level at 3 mg/kg, po administered as single dose measured after 24 hrs by automated biochemical analyzer; type: organism-based; design: scale not given: the % may be the effect or the level left; conditions: in vivo
[13] = Tmax in ICR mouse at 30 mg/kg, po measured after 24 hrs by LC-MS/MS analysis; type: ADME, organism-based; conditions: in vivo
[14] = Toxicity in ICR mouse assessed as decrease in serum total cholesterol level at 10 mg/kg, po administered as single dose measured after 24 hrs by automated biochemical analyzer; type: organism-based; design: scale not given: the % may be the effect or the level left; conditions: in vivo
[15] = Half life in ICR mouse serum at 10 mg/kg, po measured after 24 hrs by LC-MS/MS analysis; type: ADME, organism-based
[16] = Hepatotoxicity in ICR mouse assessed as upregulation of THRSP mRNA expression in liver by measuring fold change at 3 to 10 mg/kg, po administered as single dose by qRT-PCR analysis; type: toxicity, organism-based; conditions: in vivo, dose 3-10 mg/kg
[17] = Toxicity in ICR mouse assessed as decrease in serum total cholesterol level at 3 mg/kg, po administered as single dose measured after 24 hrs by automated biochemical analyzer; type: organism-based; design: scale not given: the % may be the effect or the level left; conditions: in vivo
[18] = tested on: Mus musculus; test: Anti-NASH activity in high-fat diet and CCl4-induced nonalcoholic steatohepatitis C57BL/6J mouse assessed as reduction in col-1A1 gene expression in liver at 3 to 10 mg/kg, po once daily and measured after 48 hrs […]; type: functional, organism-based; conditions: dose 3-10 mg/kg
[19] = Cardiotoxicity in ICR mouse assessed as changes in Myh7 mRNA expression in heart at 3 to 10 mg/kg, po administered as single dose by qRT-PCR analysis; type: toxicity, organism-based; conditions: in vivo, dose 3-10 mg/kg
[20] = tested on: Mus musculus; test: Anti-NASH activity in high-fat diet and CCl4-induced nonalcoholic steatohepatitis C57BL/6J mouse assessed as decrease in liver steatosis at 3 to 10 mg/kg, po once daily and measured after 48 hrs by hematoxylin and eosin staining based microscopic analysis; type: functional, organism-based; conditions: dose 3-10 mg/kg
[21] = Toxicity in ICR mouse assessed as decrease in serum total cholesterol level at 30 mg/kg, po administered as single dose measured after 24 hrs by automated biochemical analyzer; type: organism-based; design: scale not given: the % may be the effect or the level left; conditions: in vivo
[22] = Toxicity in ICR mouse assessed as decrease in serum total LDL-cholesterol level at 10 mg/kg, po administered as single dose measured after 24 hrs by automated biochemical analyzer; type: organism-based; design: scale not given: the % may be the effect or the level left; conditions: in vivo
[23] = Hepatotoxicity in ICR mouse assessed as upregulation of Dio1 mRNA expression in liver by measuring fold change at 3 to 10 mg/kg, po administered as single dose by qRT-PCR analysis; type: toxicity, organism-based; conditions: in vivo, dose 3-10 mg/kg
[24] = Metabolic stability in human liver microsomes assessed as half life; type: ADME, Microsome
[25] = Half life in ICR mouse at 30 mg/kg, po measured after 24 hrs by LC-MS/MS analysis; type: ADME, organism-based; conditions: in vivo
[26] = Cardiotoxicity in ICR mouse assessed as changes in Myh6/Myh7 ratio in heart at 3 to 10 mg/kg, po administered as single dose by qRT-PCR analysis; type: toxicity, organism-based; conditions: in vivo, dose 3-10 mg/kg
[27] = Tmax in ICR mouse liver at 10 mg/kg, po measured after 24 hrs by LC-MS/MS analysis; type: ADME, organism-based
[28] = tested on: Mus musculus; test: Anti-NASH activity in high-fat diet and CCl4-induced nonalcoholic steatohepatitis C57BL/6J mouse assessed as reduction in liver fibrosis area at 3 to 10 mg/kg, po once daily and measured after 48 hrs by sirius red staining based assay; type: functional, organism-based; conditions: dose 3-10 mg/kg
[29] = tested on: Mus musculus; test: Anti-NASH activity in high-fat diet and CCl4-induced nonalcoholic steatohepatitis C57BL/6J mouse assessed as decrease in inflammation score at 3 to 10 mg/kg, po once daily and measured after 48 hrs by hematoxylin and eosin staining based microscopic analysis; type: functional, organism-based; conditions: dose 3-10 mg/kg
[30] = Metabolic stability in mouse liver microsomes assessed as intrinsic clearance; type: ADME, Microsome
[31] = Metabolic stability in monkey liver microsomes assessed as half life; type: ADME, Macaca mulatta, Microsome; conditions: rhesus monkey
[32] = Metabolic stability in mouse liver microsomes assessed as half life; type: ADME, Microsome
[33] = AUClast in ICR mouse at 30 mg/kg, po measured after 24 hrs by LC-MS/MS analysis; type: ADME, organism-based; design: dose 30 mg/kg, time 24 hrs, route po; conditions: in vivo
[34] = Cmax in ICR mouse at 30 mg/kg, po measured after 24 hrs by LC-MS/MS analysis; type: ADME, organism-based; design: time 24 hrs, dose 30 mg/kg, route po; conditions: in vivo
[35] = Metabolic stability in monkey liver microsomes assessed as intrinsic clearance; type: ADME, Macaca mulatta, Microsome; conditions: rhesus monkey
[36] = AUClast in ICR mouse serum at 10 mg/kg, po measured after 24 hrs by LC-MS/MS analysis; type: ADME, organism-based; design: time 24 hrs, dose 10 mg/kg, route po
[37] = Tmax in ICR mouse serum at 10 mg/kg, po measured after 24 hrs by LC-MS/MS analysis; type: ADME, organism-based
[38] = tested on: Mus musculus; test: Anti-NASH activity in high-fat diet and CCl4-induced nonalcoholic steatohepatitis C57BL/6J mouse assessed as decrease in serum total cholesterol level administered orally once daily for 6 weeks; type: functional, organism-based; conditions: dose 3-10 mg/kg, route po
[39] = Metabolic stability in human liver microsomes assessed as intrinsic clearance; type: ADME, Microsome
[40] = Cmax in ICR mouse serum at 10 mg/kg, po measured after 24 hrs by LC-MS/MS analysis; type: ADME, organism-based; design: dose 10 mg/kg, time 24 hrs, route po

SMILES: N#Cc1nn(-c2cc(Cl)c(-n3ccc4c3ccc(=O)n4C3CC3)c(Cl)c2)c(=O)[nH]c1=O
- EC50 [1]: 130 nM
- EC50 [2]: 30 nM
- Ratio [3]: 7.9

SMILES: N#Cc1nn(-c2cc(Cl)c(-n3ccc4c(O)cccc43)c(Cl)c2)c(=O)[nH]c1=O
- EC50 [1]: > 33000 nM
- EC50 [2]: > 100000 nM

SMILES: CC(C)n1c(=O)ccc2c1ccn2-c1c(Cl)cc(NC(=O)c2noc(=O)[nH]2)cc1Cl
- EC50 [1]: 810 nM
- EC50 [2]: 200 nM
- Ratio [3]: 6.4

SMILES: Cc1cc2c(ccn2-c2c(Cl)cc(-n3nc(C#N)c(=O)[nH]c3=O)cc2Cl)cc1O
- EC50 [1]: > 1200 nM
- EC50 [2]: > 3700 nM

Further lines, with some results ahead:

- EC50 [1]: 340 nM
- EC50 [2]: 40 nM
SMILES: N#Cc1nn(-c2cc(Cl)c(-n3ccc4c3ccc(=O)n4C3CCCC3)c(Cl)c2)c(=O)[nH]c1=O
- Ratio [3]: 8.1

- half-life [4]: 0.25 h
- Cmax [6]: 99000 ng/g
- half-life [7]: 3.48 h
- CLH [8]: 10 mL/min/g
- EC50 [1]: 220 nM
- Tmax [13]: 8 h
- half-life [15]: 4.4 h
- EC50 [2]: 30 nM
- half-life [24]: 2.98 h
- half-life [25]: 8.7 h
- Tmax [27]: 4 h
- CLH [30]: 7.7 mL/min/g
- half-life [31]: 4.38 h
- half-life [32]: 4.55 h
- AUC(0-t) at 24 h [33]: 37500 ng·h/mL
- Cmax [34]: 2830 ng/mL
- CLH [35]: 8 mL/min/g
- AUC(0-t) at 24 h [36]: 12100 ng·h/mL
- Tmax [37]: 6 h
- CLH [39]: 11.7 mL/min/g
- Cmax [40]: 1200 ng/mL
SMILES: CC(C)n1c(=O)ccc2c1ccn2-c1c(Cl)cc(-n2nc(C#N)c(=O)[nH]c2=O)cc1Cl
- Activity [5]: Active
- Activity [9]: Non-Toxic
- Activity [10]: Dose-Dependent Effect
- fold change (FC) [11]: 3
- Activity [12]: 53.6%
- Activity [14]: 33.7%
- fold change (FC) [16]: 16
- Activity [17]: 30.7%
- Activity [18]: Active
- Activity [19]: Non-Toxic
- Activity [20]: Active
- Activity [21]: 33%
- Activity [22]: 62.1%
- fold change (FC) [23]: 19
- Activity [26]: Non-Toxic
- Activity [28]: Active
- Activity [29]: Active
- Activity [38]: Dose-Dependent Effect

- EC50 [1]: 120 nM
- EC50 [2]: 20 nM
SMILES: N#Cc1nn(-c2cc(Cl)c(-n3ccc4c3ccc(=O)n4C3CCC3)c(Cl)c2)c(=O)[nH]c1=O
- Ratio [3]: 7.5

- EC50 [1]: 440 nM
- EC50 [2]: 210 nM
SMILES: CC(C)n1c(=O)ccc2c1ccn2-c1c(Cl)cc(NC(=O)CC(=O)O)cc1Cl
- Ratio [3]: 3.3

- EC50 [1]: 1400 nM
- EC50 [2]: 650 nM
SMILES: N#Cc1nn(-c2cc(Cl)c(-n3ccc4cc(O)ccc43)c(Cl)c2)c(=O)[nH]c1=O
- Ratio [3]: 4.1
